Assay results taken from US11753407B2, “Compounds for treating spinal muscular atrophy” (PTC Therapeutics, Inc., priority 2012, dated 2023).

Experiments:
[1] = tested on: SMN2 minigene mRNA (SMN2-A minigene) in HEK293H cells; test: SMN2 minigene mRNA splicing RT-qPCR assay in cultured cells; assay type: cell-based, human; conditions: Homo sapiens, HEK293-H; concentration increasing full length SMN2 mRNA 1.5-fold relative to vehicle-treated cells; HEK293H cells with SMN2-A minigene, 24 hours, 7-point concentration data; read-out: EC1.5x for production of full length SMN2 mRNA
Summary of the method: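 HEK293H cells stably carrying SMN2-A minigene treated with compounds (7-point, 3.16-fold dilutions, duplicates) for 24 h at 37 °C. Full-length exon 7-containing minigene mRNA measured by multiplex RT-qPCR with GAPDH, normalized and expressed relative to vehicle (modified ΔΔCt); EC1.5× is concentration giving 1.5-fold increase.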

[2] = tested on: Smn protein in SMA patient fibroblast cells (GM03813); test: Smn protein assay in cultured cells (SMN HTRF); assay type: cell-based, human; conditions: SMA patient fibroblast cells, 48 hours; for maximum fold (Fold) increase of Smn protein: 7-point concentration data, fold relative to vehicle control; for EC1.5x for Smn protein expression: 7-point concentration curve, SMN HTRF, concentration producing 1.5 times Smn protein vs DMSO vehicle control
Summary of the method: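 SMA patient fibroblasts (5,000/well, DMEM-10% FBS) treated 48 h at 37° C with 7-point, 3.16-fold compound series in triplicate; lysates read by SMN HTRF (665/620 nm ratio). Fold Smn increase over DMSO vehicle derived; EC1.5× is concentration giving 1.5-fold Smn, with maximum fold also reported.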

melting point	Structure (SMILES)	EC (1.5-fold increase) [1]	maximum fold (Fold) increase of Smn protein [2]	EC1.5x for Smn protein expression [2]
175 to 181 °C	Cc1cn2cc(-c3cc(=O)n4cc(N5CCN(CCOCCO)[C@@H](C)C5)ccc4n3)cc(F)c2n1 [Compound 540, 2-(8-fluoro-2-methylimidazo[1,2-a]pyridin-6-yl)-7-{(3S)-4-[2-(2-hydroxyethoxy)ethyl]-3-methylpiperazin-1-yl}-4H-pyrido[1,2-a]pyrimidin-4-one]	< 0.1 µM	*** (a fold increase between >1.35 and ≤1.5 is indicated by three stars (***))	
191 to 194 °C	Cc1cn2cc(-c3cc(=O)n4cc(N5CCN(C(C)C)[C@@H](C)C5)ccc4n3)cc(F)c2n1 [Compound 541, 2-(8-fluoro-2-methylimidazo[1,2-a]pyridin-6-yl)-7-[(3S)-3-methyl-4-(propan-2-yl)piperazin-1-yl]-4H-pyrido[1,2-a]pyrimidin-4-one]	0.1 to 0.3 µM	***** (a fold increase >1.65 is indicated by five stars (*****))	*** (an EC1.5× between >0.3 μM and ≤1 μM is indicated by three stars (***))
242 to 246 °C	Cc1cn2cc(-c3cc(=O)n4cc(N5CCN(C6CC6)[C@@H](C)C5)ccc4n3)cc(F)c2n1 [Compound 542, 7-[(3S)-4-cyclopropyl-3-methylpiperazin-1-yl]-2-(8-fluoro-2-methylimidazo[1,2-a]pyridin-6-yl)-4H-pyrido[1,2-a]pyrimidin-4-one]	< 0.1 µM	***** (a fold increase >1.65 is indicated by five stars (*****))	*** (an EC1.5× between >0.3 μM and ≤1 μM is indicated by three stars (***))
264 to 267 °C	Cc1cn2cc(-c3cc(=O)n4cc(N5CCN(C6CCC6)[C@@H](C)C5)ccc4n3)cc(F)c2n1 [Compound 543, 7-[(3S)-4-cyclobutyl-3-methylpiperazin-1-yl]-2-(8-fluoro-2-methylimidazo[1,2-a]pyridin-6-yl)-4H-pyrido[1,2-a]pyrimidin-4-one]	< 0.1 µM	***** (a fold increase >1.65 is indicated by five stars (*****))	**** (an EC1.5x≤0.3 μM is indicated by four stars (****))
190 to 192 °C	C[C@@H]1CN(c2ccc3nc(-c4ccc5c(cnn5C)c4)cc(=O)n3c2)CCN1 [Compound 545, 2-(1-methyl-1H-indazol-5-yl)-7-[(3R)-3-methylpiperazin-1-yl]-4H-pyrido[1,2-a]pyrimidin-4-one]	0.1 to 0.3 µM	***** (a fold increase >1.65 is indicated by five stars (*****))	**** (an EC1.5x≤0.3 μM is indicated by four stars (****))
230 to 233 °C	CCc1nc(C)cn2nc(-c3cc(=O)n4cc(N5CCNCC5)ccc4n3)cc12 [Compound 546, 2-(4-ethyl-6-methylpyrazolo[1,5-a]pyrazin-2-yl)-7-(piperazin-1-yl)-4H-pyrido[1,2-a]pyrimidin-4-one]	< 0.1 µM	***** (a fold increase >1.65 is indicated by five stars (*****))	**** (an EC1.5x≤0.3 μM is indicated by four stars (****))
250 to 252 °C	CCc1nc(C)cn2nc(-c3cc(=O)n4cc(N5CCN(C)CC5)ccc4n3)cc12 [Compound 547, 2-(4-ethyl-6-methylpyrazolo[1,5-a]pyrazin-2-yl)-7-(4-methylpiperazin-1-yl)-4H-pyrido[1,2-a]pyrimidin-4-one]	< 0.1 µM	***** (a fold increase >1.65 is indicated by five stars (*****))	**** (an EC1.5x≤0.3 μM is indicated by four stars (****))
250 to 252 °C	CCc1nc(C)cn2nc(-c3cc(=O)n4cc(N5CCN(CC)CC5)ccc4n3)cc12 [Compound 548, 2-(4-ethyl-6-methylpyrazolo[1,5-a]pyrazin-2-yl)-7-(4-ethylpiperazin-1-yl)-4H-pyrido[1,2-a]pyrimidin-4-one]	< 0.1 µM	***** (a fold increase >1.65 is indicated by five stars (*****))	**** (an EC1.5x≤0.3 μM is indicated by four stars (****))
240 to 242 °C	CCc1nc(C)cn2nc(-c3cc(=O)n4cc(N5CCN(CCO)CC5)ccc4n3)cc12 [Compound 549, 2-(4-ethyl-6-methylpyrazolo[1,5-a]pyrazin-2-yl)-7-[4-(2-hydroxyethyl)piperazin-1-yl]-4H-pyrido[1,2-a]pyrimidin-4-one]	< 0.1 µM	***** (a fold increase >1.65 is indicated by five stars (*****))	**** (an EC1.5x≤0.3 μM is indicated by four stars (****))
258 to 260 °C	CCc1nc(C)cn2nc(-c3cc(=O)n4cc(N5CCC(N(C)C)CC5)ccc4n3)cc12 [Compound 550, 7-[4-(dimethylamino)piperidin-1-yl]-2-(4-ethyl-6-methylpyrazolo[1,5-a]pyrazin-2-yl)-4H-pyrido[1,2-a]pyrimidin-4-one]	< 0.1 µM	***** (a fold increase >1.65 is indicated by five stars (*****))	**** (an EC1.5x≤0.3 μM is indicated by four stars (****))
232 to 235 °C	CCc1nc(C)cn2nc(-c3cc(=O)n4cc(N5CCC(N(CC)CC)CC5)ccc4n3)cc12 [Compound 551, 7-[4-(diethylamino)piperidin-1-yl]-2-(4-ethyl-6-methylpyrazolo[1,5-a]pyrazin-2-yl)-4H-pyrido[1,2-a]pyrimidin-4-one]	0.1 to 0.3 µM	***** (a fold increase >1.65 is indicated by five stars (*****))	**** (an EC1.5x≤0.3 μM is indicated by four stars (****))
240 to 242 °C	C[C@@H]1CN(c2ccc3nc(-c4ccc5c(cnn5C)c4)cc(=O)n3c2)C[C@H](C)N1 [Compound 552, 7-[(3R,5S)-3,5-dimethylpiperazin-1-yl]-2-(1-methyl-1H-indazol-5-yl)-4H-pyrido[1,2-a]pyrimidin-4-one]	0.3 to 1 µM	**** (a fold increase between >1.5 and ≤1.65 is indicated by four stars (****))	*** (an EC1.5× between >0.3 μM and ≤1 μM is indicated by three stars (***))
206 to 208 °C	C[C@H]1CN(c2ccc3nc(-c4ccc5c(cnn5C)c4)cc(=O)n3c2)CCN1 [Compound 553, 2-(1-methyl-1H-indazol-5-yl)-7-[(3S)-3-methylpiperazin-1-yl]-4H-pyrido[1,2-a]pyrimidin-4-one]	0.1 to 0.3 µM	***** (a fold increase >1.65 is indicated by five stars (*****))	**** (an EC1.5x≤0.3 μM is indicated by four stars (****))
218 to 220 °C	Cc1cn2cc(-c3cc(=O)n4cc(C5CCN(C(C)C)CC5)ccc4n3)ccc2n1 [Compound 554, 2-(2-methylimidazo[1,2-a]pyridin-6-yl)-7-[1-(propan-2-yl)piperidin-4-yl]-4H-pyrido[1,2-a]pyrimidin-4-one]	0.1 to 0.3 µM	***** (a fold increase >1.65 is indicated by five stars (*****))	**** (an EC1.5x≤0.3 μM is indicated by four stars (****))
272 to 277 °C	Cc1cn2ccc(-c3cc(=O)n4cc(N5CCNCC5)ccc4n3)cc2n1 [Compound 555, 2-(2-methylimidazo[1,2-a]pyridin-7-yl)-7-(piperazin-1-yl)-4H-pyrido[1,2-a]pyrimidin-4-one]	1 to 3 µM	*** (a fold increase between >1.35 and ≤1.5 is indicated by three stars (***))	** (an EC1.5× between >1 μM and ≤3 μM is indicated by two stars (**))
257 to 260 °C	Cc1cn2ccc(-c3cc(=O)n4cc(C5CCNCC5)ccc4n3)cc2n1 [Compound 556, 2-(2-methylimidazo[1,2-a]pyridin-7-yl)-7-(piperidin-4-yl)-4H-pyrido[1,2-a]pyrimidin-4-one]	0.3 to 1 µM	*** (a fold increase between >1.35 and ≤1.5 is indicated by three stars (***))	** (an EC1.5× between >1 μM and ≤3 μM is indicated by two stars (**))
285 to 288 °C	Cc1cn2ccc(-c3cc(=O)n4cc(N5CCN(C)CC5)ccc4n3)cc2n1 [Compound 557, 2-(2-methylimidazo[1,2-a]pyridin-7-yl)-7-(4-methylpiperazin-1-yl)-4H-pyrido[1,2-a]pyrimidin-4-one]	1 to 3 µM	* (A maximum fold increase of ≤1.2 is indicated by one star (*))	
219 to 222 °C	CCN1CCN(c2ccc3nc(-c4ccn5cc(C)nc5c4)cc(=O)n3c2)CC1 [Compound 558, 7-(4-ethylpiperazin-1-yl)-2-(2-methylimidazo[1,2-a]pyridin-7-yl)-4H-pyrido[1,2-a]pyrimidin-4-one]	1 to 3 µM	** (a fold increase between >1.2 and ≤1.35 is indicated by two stars (**))	
